In PMC8451604, “Rational formulation engineering of fraxinellone utilizing 6-O-α-D-maltosyl-β-cyclodextrin for enhanced oral bioavailability and hepatic fibrosis therapy” (Drug Delivery, 2021):
In brackets after ≈: the same amount, converted by molar mass. Entries after “also recorded” stand apart in the source; their conditions may differ.

Columns and labels:
[1] = Octanol/water partition coefficient (Log P) measurement; type: physicochemical; conditions: octanol/PBS (mutually saturated, equal volumes); pH 1.2, 4.5 and 6.8, 37 °C
Method: The mixtures were placed in an air bath shaking at 100 rpm at 37 °C for 24 h. The samples were then centrifuged (12,000 rpm, 10 min) for oil/water phase separation. The drug concentration in these two phases was analyzed by HPLC, respectively.

[2] = Stability of Frax in artificial gastrointestinal fluid (SGF/SIF); type: physicochemical; conditions: SGF/SIF with or without enzymes, 37 °C
Method: The stability studies were performed according to the previous study (Zhang et al., [2015]). Briefly, 20 μL of DMSO solution of Frax (10 mg/mL) was added to 10 mL of simulated gastric fluid (SGF) or simulated intestinal fluid (SIF) containing pepsin/without pepsin. Afterward, the samples were placed in a shaker (100 rpm, 37 °C). At predetermined timepoints, a suitable amount of samples were withdrawn and mixed with methanol. After a thorough vortex, the mixture was centrifuged and the resulted supernatant was subjected to HPLC to determine Frax content.

[3] = Stability of Frax in homogenates of gastrointestinal segments; type: in vitro ADME, rats; conditions: rat GI segment homogenates, 37 °C
Method: GI segments (the stomach, duodenum, jejunum, ileum, and colon) were immediately isolated after the rats were sacrificed. Thereafter, the mucosa of each segment was homogenized and centrifuged following gently scraping. The supernatant was separated and subjected to BCA protein quantitative kit to adjust the final protein concentration to 1 mg/mL. DMSO solution of Frax (5 mg/mL) was added in the homogenate to achieve a final drug concentration of 20 μg/mL. After incubation at 37 °C for predetermined durations, samples were immediately precipitated by methanol, centrifuged, and injected into HPLC to measure the Frax concentration. The drug concentration measured before the incubation was set to 100%.

[4] = Solubility of Frax in various solubilizers (50% solution); type: physicochemical; conditions: 37 °C
Method: Excess Frax was added into Solutol HS 15, Tween 80, PEG 400, Transcutol P, β-CD, SBE-β-CD, HP-β-CD, and G2-β-CD solution (50%), respectively. The samples were vortexed followed by incubation in a shaker (120 rpm, 37 °C) for 72 h. After the process, the samples were centrifuged to separate the supernatant containing dissolved Frax. After suitable dilution and filtration, Frax concentration in the supernatant was analyzed by the HPLC method.

[5] = In vitro drug release by dialysis method; type: physicochemical; conditions: within 6 h, pH 1.2, 6.8 and 7.4 media, 37 °C
Method: In vitro drug release performance was studied by a dialysis method in phosphate buffer (pH 6.8 and 7.4) and 0.1 M HCl (pH 1.2) at 37 °C. Briefly, a certain volume of Frax suspension, SBE-β-CD-Frax, G2-β-CD-Frax, and HP-β-CD-Frax dispersion solution were enclosed in 1500 Da dialysis bags, respectively. The dialysis bag was then transferred and immersed into the release medium under gentle shaking. After 0.5, 1, 1.5, 2, 2.5, 3.5, 4, and 6 h, 1 mL of the release media was aspirated and supplemented with 1 mL of fresh media. The Frax concentration in the samples was analyzed by HPLC. The cumulative drug release (%) was calculated with the following Equation (2) (Chuang et al., [2018]): (2) Drug release (%)=Ve∑1n−1Ci+V0Cn/mFrax where V0 (mL) is the release media volume, Cn (μg/mL) is the drug concentration in the sample, Ve (mL) is the replaced medium volume, and mFrax (mg) is the amount of drug in the sample.

[6] = Oral bioavailability / pharmacokinetic study; parameters: species or system Male Wistar rats; conditions: male, Wistar, rat, in vivo
Method: Pharmacokinetic studies were conducted in Male Wistar rats (180–220 g) supplied by the Center of laboratory animals, Zhengzhou University. The Use Committee of Zhengzhou University (IRB0000861) approved the experimental protocol. In addition, all animal experiments were conducted according to the Guidelines of Animal Experimentation of the Laboratory Animal Center. Rats were acclimatized before experiments and provided free access to food and water.
Rats divided into five groups at random (n = 5) were dosed with the following formulations: intravenous administration of Frax ([…]) or orally given Frax suspension (150 mg/kg) or SBE-β-CD-Frax, HP-β-CD-Frax, and G2-β-CD-Frax (150 mg/kg), respectively. Blood (0.4 mL) was obtained by orbital sinus collection at 0.17, 0.25, 0.75, 1, 1.5, 2, 4, 6, 8, and 10 h post-administration. To determine Frax concentration in plasma, 200 μL methanol, 100 μL acetonitrile, and 20 μL 5% hydrochloric acid were added to rat plasma (100 μL) gradually. Following vortexing and centrifugation (4024.8 g, 10 min), the supernatant was collected, dried by air blowing at room temperature, and reconstituted with 150 μL of the mobile phase. The samples were sonicated and vortexed until homogeneity. After centrifugation, the supernatant (50 μL) was aspirated and injected into HPLC. The standard curve encompassed a linear range of 0.05–10 μg/mL and was used to calculate Frax concentration in plasma. Pharmacokinetic parameters were calculated using DAS software version 3.0 and reported as mean ± standard deviation. The oral absolute and relative bioavailability (Fa and Fr) were calculated using the following Equations (3) and (4): (3) Fa(%)=AUC^testDose^i.v/AUC^i.vDose^test (4) Fr(%)=AUCtest/AUCreference where AUC is the area under the pharmacokinetic curves

**Q.** Which results are given for `CC1=C2C(=O)O[C@@H](c3ccoc3)[C@]2(C)CCC1` [Frax, Fraxinellone]?
**A.** logP at 24 h [1]: 3.2 ± 0.17; degradation in simulated GI fluids [2]: rather stable; also recorded: negligible degradation; degradation in GI homogenates [3]: negligible degradation; solubility at 72 h ([4]; 50% (w/v) G2-β-CD solution in water): 12.7 mg/mL (≈ 54.8 mM); Frax solubility in G2-β-CD solution relative to water ([4]; 50% (w/v) G2-β-CD solution vs water): 160 times; cumulative drug release [5]: < 20%; bioavailability [6]: 0.5%; AUC(0-inf) ([6]; iv, 10 mg/kg): 11.8 ± 1.43 µg·h/mL; AUC(0-inf) ([6]; po, 150 mg/kg): 0.97 ± 0.23 µg·h/mL; Cmax ([6]; po, 150 mg/kg): 0.49 ± 0.29 µg/mL; Tmax ([6]; po, 150 mg/kg): 1 ± 0.35 h
